Reference: patent publication US20090281121A1, “SUBSTITUTED 8-PIPERIDINYL-2-PYRIDINYL-PYRIMIDO[1,2-a] PYRIMIDIN-6-ONE AND 8-PIPERIDINYL-2-PYRIMIDINYL-PYRIMIDO[1,2-a] PYRIMIDIN-6-ONE DERIVATIVES” (SANOFI-AVENTIS, priority 2006, published 2009)
Where a name gives a salt, the structure may show the parent alone.

Columns and labels:
GSK3β = GSK3β (Homo sapiens, UniProt P49841); experiment: Inhibitory activity against GSK3β (33P-ATP phosphorylation of prephosphorylated GS1 peptide, two protocols); type: biochemical; conditions: first or second protocol not specified
Protocol: Two different protocols can be used.
In a first protocol: 7.5 μM of prephosphorylated GS1 peptide and 10 μM ATP (containing 300,000 cpm of 33P-ATP) were incubated in 25 mM Tris-HCl, pH 7.5, 0.6 mM DTT, 6 mM MgCl2, 0.6 mM EGTA, 0.05 mg/ml BSA buffer for 1 hour at room temperature in the presence of GSK3beta (total reaction volume: 100 microliters).
In a second protocol: 4.1 μM of prephosphorylated GS1 peptide and 42 μM ATP (containing 260,000 cpm 33P-ATP) were incubated in 80 mM Mes-NaOH, pH 6.5, 1 mM Mg acetate, 0.5 mM EGTA, 5 mM 2-mercaptoethanol, 0.02% Tween 20, 10% glycerol buffer for 2 hours at room temperature in the presence of GSK3beta. Inhibitors were solubilized in DMSO (final solvent concentration in the reaction medium, 1%).
The reaction was stopped with 100 microliters of a solution made of 25 g polyphosphoric acid (85% P2O5), 126 ml 85% H3PO4, H2O to 500 ml and then diluted to 1:100 before use. An aliquot of the reaction mixture was then transferred to Whatman P81 cation exchange filters and rinsed with the solution described above. Incorporated 33P radioactivity was determined by liquid scintillation spectrometry.
The phosphorylated GS-1 peptide had the following sequence NH2-[…](P)EDEE-COOH. (Woodgett, J. R. (1989) Analytical Biochemistry 180, 237-241.

Chain of GSK3β (P49841 whole entry): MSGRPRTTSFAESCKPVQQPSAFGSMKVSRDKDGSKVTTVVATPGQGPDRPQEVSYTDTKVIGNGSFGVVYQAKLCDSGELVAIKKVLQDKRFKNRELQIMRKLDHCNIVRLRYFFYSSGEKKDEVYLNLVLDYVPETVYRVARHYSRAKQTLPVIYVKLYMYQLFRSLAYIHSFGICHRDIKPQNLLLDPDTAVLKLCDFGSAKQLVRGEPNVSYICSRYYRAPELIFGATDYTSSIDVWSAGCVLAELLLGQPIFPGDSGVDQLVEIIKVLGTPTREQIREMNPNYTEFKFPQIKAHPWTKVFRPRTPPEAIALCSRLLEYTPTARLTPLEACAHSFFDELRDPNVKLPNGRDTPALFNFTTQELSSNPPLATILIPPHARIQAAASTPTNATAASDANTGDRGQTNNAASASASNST

| melting point [°C] | IC50 (GSK3β) [µM] | SMILES |
| --- | --- | --- |
| 255 to 257 |  | O=C(CN1c2nc(-c3ccncc3)cc(=O)n2CCC1C1CCNCC1)c1cccc(Br)c1 (racemic) (as salt: hydrochloride) [compound 8, (−)9-[2-Oxo-2-(3-bromo-phenyl)ethyl]-8-(4-piperidinyl)-2-(4-pyridinyl)-6,7,8,9-tetrahydro-4H-pyrimido[1,2-a]pyrimidin-4-one] |
| 270 to 272 |  | COc1cc(F)ccc1CCN1c2nc(-c3ccncc3)cc(=O)n2CCC1C1CCNCC1 (racemic) [compound 7, (+/−)9-[2-(4-fluoro-2-methoxy-phenyl)ethyl]-8-(4-piperidinyl)-2-(4-pyridinyl)-6,7,8,9-tetrahydro-4H-pyrimido[1,2-a]pyrimidin-4-one] |
|  | 0.012 | O=C(CN1c2nc(-c3ccncc3)cc(=O)n2CCC1C1CCNCC1)c1ccccc1 (racemic) [Compound No. 3, (+/−)-9-(2-Oxo-2-phenylethyl)-8-(4-piperidinyl)-2-(4-pyridinyl)-6,7,8,9-tetrahydro-4H-pyrimido[1,2-a]pyrimidin-4-one] |
